Measurements reported in paper PMC10746543, “Design principles for cyclin K molecular glue degraders” (Nature Chemical Biology, 2023).
“And” between values parts separate entries of the source, which are not always exact repeats. Equal entries are not always repeated. Where two headings read alike, the source gives them in different places.

Assays:
[1] = system: HEK293T cells; experiment: Drug sensitivity assay (CellTiter-Glo viability) with or without MLN4924 pretreatment; assay type: cell-based, human; settings: Supplementary Table 2; for EC50: Homo sapiens, HEK-293T, HEK293T viability, 72 h, compound alone, read-out: Cellular assays EC50; for Toxicity rescue: MLN4924-mediated cytotoxicity rescue, 10 µM used where n.d.
Summary of the method: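 Viability of HEK293T–Cas9 cells was compared after 3-day drug treatment with or without 100 nM MLN4924 pretreatment (2 h, versus DMSO). Values are CellTiter-Glo signals relative to DMSO controls.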

[2] = system: cyclin K–eGFP degradation reporter; experiment: Cyclin K reporter stability analysis (dual-color cyclin K–eGFP reporter); assay type: cell-based, human
Summary of the method: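 Values reflect cyclin K–eGFP levels after a 5 h exposure, expressed as the green-to-red fluorescence ratio and scaled to three vehicle-treated controls. Measurements came from HEK293T–Cas9 reporter cells by flow cytometry.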

[3] = molecular target: T1, CDK12–cyclin K and DDB1 (Homo sapiens, UniProt Q16531+Q9NYV4, K965R); experiment: TR-FRET ternary complex formation assay (compound titration); assay type: binding; settings: for TR-FRET signal at compound concentration: replicate titrations
T1 construct: His6–CDK12 (a.a. 713–1,052); full-length or beta-propeller B domain deletion (ΔBPB: a.a. 396–705 deleted) constructs of His6–DDB1ΔBPB, StrepII–Avi–DDB1, or His6–Spy–DDB1; made in house; host or cells: Trichoplusia ni High Five insect cells (baculovirus)
Summary of the method: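 Delayed (70 μs) time-resolved read; FRET computed as 520 nm over 490 nm emission.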

[4] = source data sheet correlations, read-out: DC50
[5] = in vitro complex formation, 50 nM CDK12–cyclin K, 100 nM DDB1, text and figures, read-out: TR-FRET EC50
[6] = sheet MOESM7, read-out: log TR-FRET EC50 (converted)
[7] = source data sheet correlations, read-out: TR-FRET EC50

T1 sequence (Q9NYV4 713-1052 K965R): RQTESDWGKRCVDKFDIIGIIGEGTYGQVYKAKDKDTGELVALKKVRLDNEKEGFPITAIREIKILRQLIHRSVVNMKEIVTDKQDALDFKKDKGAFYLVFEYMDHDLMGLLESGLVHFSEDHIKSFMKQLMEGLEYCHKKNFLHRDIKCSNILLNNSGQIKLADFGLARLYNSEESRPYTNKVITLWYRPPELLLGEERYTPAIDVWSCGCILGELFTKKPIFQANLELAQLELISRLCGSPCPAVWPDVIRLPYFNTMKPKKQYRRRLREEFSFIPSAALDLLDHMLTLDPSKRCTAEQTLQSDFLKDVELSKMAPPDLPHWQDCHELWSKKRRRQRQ
T1 sequence (O75909 1-267 partner): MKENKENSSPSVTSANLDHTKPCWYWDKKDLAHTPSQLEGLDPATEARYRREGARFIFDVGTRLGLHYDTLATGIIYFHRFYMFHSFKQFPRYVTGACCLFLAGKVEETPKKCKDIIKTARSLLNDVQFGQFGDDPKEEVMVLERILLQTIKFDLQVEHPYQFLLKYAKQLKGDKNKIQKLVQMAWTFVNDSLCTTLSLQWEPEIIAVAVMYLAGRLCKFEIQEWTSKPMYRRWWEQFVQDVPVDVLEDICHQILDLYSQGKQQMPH
T1 sequence (Q16531 whole entry): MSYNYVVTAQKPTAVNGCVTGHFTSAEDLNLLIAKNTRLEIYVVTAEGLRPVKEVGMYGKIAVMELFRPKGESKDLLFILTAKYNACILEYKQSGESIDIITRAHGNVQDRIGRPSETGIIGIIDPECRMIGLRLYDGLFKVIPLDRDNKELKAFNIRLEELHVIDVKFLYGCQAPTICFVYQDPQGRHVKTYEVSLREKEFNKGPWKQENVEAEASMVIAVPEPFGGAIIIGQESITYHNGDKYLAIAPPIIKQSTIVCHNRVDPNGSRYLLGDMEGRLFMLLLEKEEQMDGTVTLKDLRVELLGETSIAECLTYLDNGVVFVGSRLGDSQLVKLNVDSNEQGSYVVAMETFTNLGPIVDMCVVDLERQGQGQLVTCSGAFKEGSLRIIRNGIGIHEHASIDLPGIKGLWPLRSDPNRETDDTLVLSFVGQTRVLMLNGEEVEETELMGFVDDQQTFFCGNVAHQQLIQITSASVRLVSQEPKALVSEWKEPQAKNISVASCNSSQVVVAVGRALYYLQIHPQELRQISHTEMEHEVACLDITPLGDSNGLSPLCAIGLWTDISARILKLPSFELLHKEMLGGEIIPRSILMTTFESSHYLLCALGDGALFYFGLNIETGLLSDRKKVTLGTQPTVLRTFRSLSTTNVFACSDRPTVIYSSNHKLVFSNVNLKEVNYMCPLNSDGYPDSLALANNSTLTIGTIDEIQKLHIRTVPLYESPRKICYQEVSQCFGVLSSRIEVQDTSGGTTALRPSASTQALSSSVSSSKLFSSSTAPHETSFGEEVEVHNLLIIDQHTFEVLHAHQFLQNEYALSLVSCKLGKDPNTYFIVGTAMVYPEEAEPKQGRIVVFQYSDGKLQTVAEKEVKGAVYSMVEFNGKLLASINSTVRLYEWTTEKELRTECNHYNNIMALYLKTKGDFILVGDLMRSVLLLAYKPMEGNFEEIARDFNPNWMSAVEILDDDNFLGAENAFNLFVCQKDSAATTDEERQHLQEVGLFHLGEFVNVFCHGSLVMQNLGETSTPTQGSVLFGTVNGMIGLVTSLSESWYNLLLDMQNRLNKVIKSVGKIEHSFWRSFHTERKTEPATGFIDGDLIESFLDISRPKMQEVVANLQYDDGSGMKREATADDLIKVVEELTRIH

## CC[C@H](CO)Nc1nc(NCCCc2cccc(C)n2)c2ncn(C(C)C)c2n1 [DS69]
[1]
  EC50: 864 nM
  Toxicity rescue: 599%
[2]; [4]
  DC50: 217 nM
[3]; compound concentration 0.468 nM
  TR-FRET signal at compound concentration: 0.3264 and 0.326
[3]; compound concentration 2.16 nM
  TR-FRET signal at compound concentration: 0.4029 and 0.3893
[3]; compound concentration 3.6 nM
  TR-FRET signal at compound concentration: 0.5395 and 0.5039
[3]; compound concentration 7.92001 nM
  TR-FRET signal at compound concentration: 0.8326 and 0.7539
[3]; compound concentration 15.84 nM
  TR-FRET signal at compound concentration: 1.268 and 1.146
[3]; compound concentration 30.96 nM
  TR-FRET signal at compound concentration: 1.86 and 1.701
[3]; compound concentration 62.6401 nM
  TR-FRET signal at compound concentration: 2.3803 and 2.291
[3]; compound concentration 125.28 nM
  TR-FRET signal at compound concentration: 2.963 and 2.837
[3]; compound concentration 244.8 nM
  TR-FRET signal at compound concentration: 3.2576 and 3.227
[3]; compound concentration 993.601 nM
  TR-FRET signal at compound concentration: 3.4627 and 3.352
[3]; compound concentration 2001.6 nM
  TR-FRET signal at compound concentration: 3.462 and 3.373
[3]; [5]
  EC50: 36 ± 1 nM
[3]; [6]
  EC50: 35.9 nM
[3]; [7]
  EC50: 35.9 nM

## CO[C@@H](C(=O)N1Cc2n[nH]c(NC(=O)c3ccc(N4CCN(C)CC4)cc3)c2C1)c1ccccc1 [Danusertib, reference compound]
[1]
  EC50: > 10000 nM
  Toxicity rescue: 0%
[2]; Supplementary Table 2, HEK293T cycK-eGFP reporter, 5 h, read-out: Cellular assays DC50
  DC50: > 10000 nM
[3]; compound concentration 4.68 nM, raw replicate titration data
  TR-FRET signal at compound concentration 4.68 nM: 0.1339 and 0.1541
[3]; compound concentration 21.6 nM, raw replicate titration data
  TR-FRET signal at compound concentration 21.6 nM: 0.1288 and 0.1496
[3]; compound concentration 36 nM, raw replicate titration data
  TR-FRET signal at compound concentration 36 nM: 0.1327 and 0.1506
[3]; compound concentration 79.2001 nM, raw replicate titration data
  TR-FRET signal at compound concentration 79.2001 nM: 0.1323 and 0.1494
[3]; compound concentration 158.4 nM, raw replicate titration data
  TR-FRET signal at compound concentration 158.4 nM: 0.1293 and 0.1473
[3]; compound concentration 309.6 nM, raw replicate titration data
  TR-FRET signal at compound concentration 309.6 nM: 0.1264 and 0.1438
[3]; compound concentration 626.401 nM, raw replicate titration data
  TR-FRET signal at compound concentration 626.401 nM: 0.1205 and 0.1382
[3]; compound concentration 1252.8 nM, raw replicate titration data
  TR-FRET signal at compound concentration 1252.8 nM: 0.1096 and 0.1174
[3]; compound concentration 2448 nM, raw replicate titration data
  TR-FRET signal at compound concentration 2448 nM: 0.09891 and 0.113
[3]; compound concentration 9936.01 nM, raw replicate titration data
  TR-FRET signal at compound concentration 9936.01 nM: 0.07702 and 0.08712
[3]; compound concentration 20016 nM, raw replicate titration data
  TR-FRET signal at compound concentration 20016 nM: 0.06845 and 0.07789

## CC[C@H](CO)Nc1nc(NCc2ccc(-c3cccnc3)cc2)c2ncn(C(C)C)c2n1 [DS45]
[1]
  EC50: 242 nM
  Toxicity rescue: 1302%
[2]; [4]
  DC50: 36 nM
[3]; compound concentration 0.468 nM, raw titration data
  TR-FRET signal at compound concentration 0.468 nM: 0.2618 and 0.2852
[3]; compound concentration 2.16 nM, raw titration data
  TR-FRET signal at compound concentration 2.16 nM: 0.3231 and 0.3368
[3]; compound concentration 3.6 nM, raw titration data
  TR-FRET signal at compound concentration 3.6 nM: 0.3927 and 0.4029
[3]; compound concentration 7.92001 nM, raw titration data
  TR-FRET signal at compound concentration 7.92001 nM: 0.6005 and 0.5751
[3]; compound concentration 15.84 nM, raw titration data
  TR-FRET signal at compound concentration 15.84 nM: 0.9407 and 0.892
[3]; compound concentration 30.96 nM, raw titration data
  TR-FRET signal at compound concentration 30.96 nM: 1.641 and 1.433
[3]; compound concentration 62.6401 nM, raw titration data
  TR-FRET signal at compound concentration 62.6401 nM: 2.534 and 2.304
[3]; compound concentration 125.28 nM, raw titration data
  TR-FRET signal at compound concentration 125.28 nM: 3.191 and 3.0985
[3]; compound concentration 244.8 nM, raw titration data
  TR-FRET signal at compound concentration 244.8 nM: 3.469 and 3.534
[3]; compound concentration 993.601 nM, raw titration data
  TR-FRET signal at compound concentration 993.601 nM: 3.64 and 3.842
[3]; compound concentration 2001.6 nM, raw titration data
  TR-FRET signal at compound concentration 2001.6 nM: 3.5487 and 3.801
[3]; [5]
  EC50: 45 ± 2 nM
[3]; [6]
  EC50: 45.1 nM
[3]; [7]
  EC50: 45.1 nM
